Source: patent US12410152B2, “Oxazole and thioazole-type cullin ring ubiquitin ligase compounds and uses thereof” (Proxygen GmbH, priority 2019, dated 2025)

Experiments:
Format in all cases: cell-based
[1] = tested on: KBM7 CUL4Bmut cells; experiment: cells
Procedure: (§1) KBM7 cells with the specified genetic backgrounds were grown in IMDM supplemented with 10% FBS and 1% penicillin/streptomycin (pen/strep). AsPC1, HCT116, NCI-H446 and 293T cells were grown in DMEM 10% FBS and 1% pen/strep. MV4; 11, Jurkat and Be (2) C cells were grown in RPMI 10% FBS 1% pen/strep. KBM7, AsPC1 and HCT116 cells expressing Cas9 were generated using the plasmid Lenti_Cas9_Blasti (Addgene #52962). The lentiviral plasmid lentiGuide-Puro (Addgene #52963) was used to express sgRNAs against the genes UBE2M (in KBM7-Cas9, AsPC1-Cas9 and HCT116-Cas9 cells), UBE2G1 (in KBM7-Cas9 cells) and […] (in KBM7-Cas9 cells). The lentiviral plasmid lentiGuide-Puro-IRES-mCherry (modified from Addgene #52963) was used to express sgRNAs against CUL4A (in KBM7-Cas9 cells). The lentiviral plasmid pLenti-PGK-Hygro-DEST-UBE2M was generated by Gateway cloning (empty destination vector Addgene #19066), and used to generate UBE2M^resc KBM7 cells. […]
(§2) Finally, a total of structurally similar analogs was tested to unravel structure-activity relationship of the identified molecules. To that end, their anti-cancer activity was assayed in WT cells, as well as KBM7 cells deficient in genes identified in the genome-wide CRISPR screens (UBE2M, CUL4B, UBE2G1). Moreover, the compounds were also tested in AsPC1 pancreatic cancer cells (WT or UBE2Mmut), MV4; 11 and Jurkat leukemia cells, Be (2) C neuroblastoma cells, and NCI-H446 lung cancer cells (Table 3 at the end of this document)
(§3) KBM7^WT, mutant KBM7 clones (UBE2M^mut, UBE2M^resc, UBE2G1^mut CUL4A^mut, CUL4B^mut), and 3-day doxycycline pretreated KBM7^iCas9_sgDDB1 cells were seeded at a cell density of 50,000 cells/mL in 96-well plates with DMSO or drug, in triplicates. Drugs used: IC020772.1/IC020772.1X, IC021313.2/IC021313.2X, T6938051/T6938051X or THZ531. Cells were treated for 3 days, after which cell viability was assessed according to manufacturer's protocol (CellTiter Glo, Promega G7570). Survival curves and EC50 values were calculated by best-fit analysis of the log 10 drug concentration to fold change of drug-treated cells over DMSO-treated cells. All survival assays included technical triplicates per sample, per experiment.

[2] = tested on: KBM7 UBE2G1mut cells; experiment: cells
Procedure: as §1, §2, §3

[3] = target: T1, CDK12/13 (Homo sapiens, UniProt Q9NYV4); experiment: CDK12/13 destabilization (expression proteomics and Western blot)
T1 construct: endogenous in cells; host or cells: KBM7 cells
Procedure: (§4) The hypomorphic phenotype of the mutated UBE2M allele in KBM7 cells (KBM7 UBE2M^mut cells) was assessed. In this regard, CRISPR/Cas9-induced mutation of UBE2M inactivated CRL activity including CRL4^CRBN and CRL2^VHL. […] Additionally, CCNK destabilization by all three compounds was validated via time-resolved immunoblots wherein CCNK degradation was evident after two hours (FIG. 19c).
(§5) PBS-washed cell pellets were lysed in 50 mM Tris pH 7.9, 8M Urea and 1% CHAPS and incubated with shaking at 4° C. for at least 30 min. 20 μg of supernatants were run and transferred for detection. Antibodies used: CUL1 (Santa Cruz Biotechnology, sc-1276), CUL2 (Sigma-Aldrich, SAB2501565-100), CUL3 (Cell Signaling Technology, 2759), CUL4A (Cell Signaling Technology, 2699S), CUL4B (Proteintech, 12916-1-AP), CUL5 (Santa Cruz Biotechnology, sc-373822), UBE2M (Santa Cruz Biotechnology, sc-390064), DDB1 (Cell Signaling Technology, 5428S), CCNK (Bethyl, A301-939A), CDK12 (Cell Signaling Technology, 11973S), CDK13 (Bethyl, A301-458A), RBM39 (1:500, Santa Cruz Biotechnology sc-376531), V5 (Cell Signaling Technology, 13202), Ubiquityl-Histone H2A (K119) (Cell Signaling, 8240-20). ACTIN (Sigma-Aldrich, A5441), VINCUL1N (Santa Cruz Biotechnology, sc-25336). Secondary antibodies anti-mouse/rabbit/goat (Jackson ImmunoResearch 115-035-003, 111-035-003 and 705-035-003).
(§6) Comparison of overall proteome-wide changes in KBM7 cells treated with IC020772.1 (2.5 μM), IC021313.2 (7 μM) or T6938051 (3.5 μM) for 5 h and 12h, using quantitative proteomics based on isobaric tagging.

[4] = target: T2, CDK12/13 (Homo sapiens, UniProt Q14004); experiment: as above; settings: expression proteomics, drug vs DMSO; Table 4, log2FC < −0.3
T2 construct: endogenous in cells; host or cells: KBM7 cells
Procedure: as §4, §5, §6

T1 sequence (Q9NYV4 whole entry): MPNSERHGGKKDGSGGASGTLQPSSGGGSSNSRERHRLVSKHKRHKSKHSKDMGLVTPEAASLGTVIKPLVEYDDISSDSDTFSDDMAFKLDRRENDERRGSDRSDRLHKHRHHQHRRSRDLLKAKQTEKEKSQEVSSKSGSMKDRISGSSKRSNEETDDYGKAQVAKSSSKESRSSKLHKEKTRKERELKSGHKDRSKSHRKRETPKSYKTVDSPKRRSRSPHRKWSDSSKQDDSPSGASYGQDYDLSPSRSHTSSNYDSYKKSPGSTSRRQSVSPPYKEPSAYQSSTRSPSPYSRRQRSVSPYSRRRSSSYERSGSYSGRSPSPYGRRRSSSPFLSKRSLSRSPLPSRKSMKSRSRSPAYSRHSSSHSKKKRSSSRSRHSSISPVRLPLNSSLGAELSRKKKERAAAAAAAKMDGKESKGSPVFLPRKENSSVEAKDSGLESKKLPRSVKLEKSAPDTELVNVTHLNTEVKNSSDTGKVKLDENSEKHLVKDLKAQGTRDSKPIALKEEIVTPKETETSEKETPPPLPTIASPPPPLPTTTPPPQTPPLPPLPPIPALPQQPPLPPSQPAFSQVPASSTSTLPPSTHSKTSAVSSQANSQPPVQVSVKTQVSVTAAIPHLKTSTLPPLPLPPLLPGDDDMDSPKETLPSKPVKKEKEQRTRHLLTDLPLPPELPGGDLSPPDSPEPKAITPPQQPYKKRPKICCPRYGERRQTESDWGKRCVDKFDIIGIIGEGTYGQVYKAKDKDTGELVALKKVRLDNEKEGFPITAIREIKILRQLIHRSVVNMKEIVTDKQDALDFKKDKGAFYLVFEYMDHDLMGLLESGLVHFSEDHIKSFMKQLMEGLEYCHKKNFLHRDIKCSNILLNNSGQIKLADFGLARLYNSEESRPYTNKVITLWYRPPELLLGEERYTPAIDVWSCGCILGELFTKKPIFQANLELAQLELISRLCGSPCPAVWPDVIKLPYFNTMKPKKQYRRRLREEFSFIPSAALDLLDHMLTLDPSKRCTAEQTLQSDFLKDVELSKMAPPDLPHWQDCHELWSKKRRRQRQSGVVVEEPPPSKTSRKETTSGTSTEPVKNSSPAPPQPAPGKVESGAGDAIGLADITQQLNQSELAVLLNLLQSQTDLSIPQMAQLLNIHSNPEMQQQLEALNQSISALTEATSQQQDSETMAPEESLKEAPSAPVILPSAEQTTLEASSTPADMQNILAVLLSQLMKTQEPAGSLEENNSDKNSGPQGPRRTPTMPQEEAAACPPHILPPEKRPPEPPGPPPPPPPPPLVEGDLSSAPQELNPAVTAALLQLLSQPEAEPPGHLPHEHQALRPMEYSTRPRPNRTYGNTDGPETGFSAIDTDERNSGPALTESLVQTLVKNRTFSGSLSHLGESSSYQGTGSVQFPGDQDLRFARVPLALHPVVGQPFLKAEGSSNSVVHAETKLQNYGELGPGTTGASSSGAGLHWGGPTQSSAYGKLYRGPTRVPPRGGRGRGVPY
T1 sequence (O75909 whole entry partner): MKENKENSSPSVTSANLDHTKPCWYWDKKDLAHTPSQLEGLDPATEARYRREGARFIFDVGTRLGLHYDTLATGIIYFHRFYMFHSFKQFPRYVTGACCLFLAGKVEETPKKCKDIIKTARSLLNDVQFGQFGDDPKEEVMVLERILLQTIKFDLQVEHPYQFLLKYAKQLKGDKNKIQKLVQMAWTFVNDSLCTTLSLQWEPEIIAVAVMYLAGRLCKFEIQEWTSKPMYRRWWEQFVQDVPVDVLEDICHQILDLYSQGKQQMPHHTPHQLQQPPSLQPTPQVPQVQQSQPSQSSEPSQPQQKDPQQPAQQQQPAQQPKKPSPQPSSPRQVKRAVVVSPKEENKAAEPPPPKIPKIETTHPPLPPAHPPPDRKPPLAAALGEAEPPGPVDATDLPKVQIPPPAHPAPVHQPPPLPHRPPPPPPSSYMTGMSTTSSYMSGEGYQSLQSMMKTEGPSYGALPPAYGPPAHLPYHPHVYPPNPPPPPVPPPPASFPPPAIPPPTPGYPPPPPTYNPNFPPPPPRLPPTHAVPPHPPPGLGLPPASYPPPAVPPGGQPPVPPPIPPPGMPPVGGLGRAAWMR
T1 sequence (Q16531 whole entry partner): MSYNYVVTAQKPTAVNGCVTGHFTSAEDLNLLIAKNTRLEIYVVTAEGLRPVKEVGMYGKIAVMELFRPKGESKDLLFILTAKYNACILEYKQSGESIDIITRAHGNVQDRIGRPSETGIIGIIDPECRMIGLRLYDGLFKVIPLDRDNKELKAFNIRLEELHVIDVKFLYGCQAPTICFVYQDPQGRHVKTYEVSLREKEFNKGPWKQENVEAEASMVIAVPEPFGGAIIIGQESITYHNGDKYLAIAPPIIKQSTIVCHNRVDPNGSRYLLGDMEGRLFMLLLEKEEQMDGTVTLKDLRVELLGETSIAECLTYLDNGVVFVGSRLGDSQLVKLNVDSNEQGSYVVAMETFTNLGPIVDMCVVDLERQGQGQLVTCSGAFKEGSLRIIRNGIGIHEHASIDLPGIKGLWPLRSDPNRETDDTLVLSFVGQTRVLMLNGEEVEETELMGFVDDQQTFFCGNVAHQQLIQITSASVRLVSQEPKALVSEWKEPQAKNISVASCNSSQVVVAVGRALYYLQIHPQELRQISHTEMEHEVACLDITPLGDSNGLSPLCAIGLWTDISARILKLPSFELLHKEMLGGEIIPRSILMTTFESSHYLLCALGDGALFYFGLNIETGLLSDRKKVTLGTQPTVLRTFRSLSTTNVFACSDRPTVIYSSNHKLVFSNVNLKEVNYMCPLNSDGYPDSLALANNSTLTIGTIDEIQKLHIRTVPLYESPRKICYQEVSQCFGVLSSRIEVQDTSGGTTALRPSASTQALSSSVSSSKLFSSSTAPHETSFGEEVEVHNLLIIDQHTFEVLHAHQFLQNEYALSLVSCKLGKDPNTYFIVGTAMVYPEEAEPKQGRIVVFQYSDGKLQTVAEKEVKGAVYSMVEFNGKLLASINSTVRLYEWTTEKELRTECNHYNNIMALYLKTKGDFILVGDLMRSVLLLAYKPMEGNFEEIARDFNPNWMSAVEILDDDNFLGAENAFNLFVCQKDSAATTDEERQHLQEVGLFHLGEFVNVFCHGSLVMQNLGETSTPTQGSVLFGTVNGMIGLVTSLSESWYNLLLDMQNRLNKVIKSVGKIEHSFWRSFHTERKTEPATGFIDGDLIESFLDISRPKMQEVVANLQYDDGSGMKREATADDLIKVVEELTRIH
T2 sequence (O75909 whole entry): as the sequence (O75909 whole entry partner) above
T2 sequence (Q16531 whole entry, further chain): as the sequence (Q16531 whole entry partner) above
T2 sequence (Q14004 other isoform, or with tags, fused parts or gaps): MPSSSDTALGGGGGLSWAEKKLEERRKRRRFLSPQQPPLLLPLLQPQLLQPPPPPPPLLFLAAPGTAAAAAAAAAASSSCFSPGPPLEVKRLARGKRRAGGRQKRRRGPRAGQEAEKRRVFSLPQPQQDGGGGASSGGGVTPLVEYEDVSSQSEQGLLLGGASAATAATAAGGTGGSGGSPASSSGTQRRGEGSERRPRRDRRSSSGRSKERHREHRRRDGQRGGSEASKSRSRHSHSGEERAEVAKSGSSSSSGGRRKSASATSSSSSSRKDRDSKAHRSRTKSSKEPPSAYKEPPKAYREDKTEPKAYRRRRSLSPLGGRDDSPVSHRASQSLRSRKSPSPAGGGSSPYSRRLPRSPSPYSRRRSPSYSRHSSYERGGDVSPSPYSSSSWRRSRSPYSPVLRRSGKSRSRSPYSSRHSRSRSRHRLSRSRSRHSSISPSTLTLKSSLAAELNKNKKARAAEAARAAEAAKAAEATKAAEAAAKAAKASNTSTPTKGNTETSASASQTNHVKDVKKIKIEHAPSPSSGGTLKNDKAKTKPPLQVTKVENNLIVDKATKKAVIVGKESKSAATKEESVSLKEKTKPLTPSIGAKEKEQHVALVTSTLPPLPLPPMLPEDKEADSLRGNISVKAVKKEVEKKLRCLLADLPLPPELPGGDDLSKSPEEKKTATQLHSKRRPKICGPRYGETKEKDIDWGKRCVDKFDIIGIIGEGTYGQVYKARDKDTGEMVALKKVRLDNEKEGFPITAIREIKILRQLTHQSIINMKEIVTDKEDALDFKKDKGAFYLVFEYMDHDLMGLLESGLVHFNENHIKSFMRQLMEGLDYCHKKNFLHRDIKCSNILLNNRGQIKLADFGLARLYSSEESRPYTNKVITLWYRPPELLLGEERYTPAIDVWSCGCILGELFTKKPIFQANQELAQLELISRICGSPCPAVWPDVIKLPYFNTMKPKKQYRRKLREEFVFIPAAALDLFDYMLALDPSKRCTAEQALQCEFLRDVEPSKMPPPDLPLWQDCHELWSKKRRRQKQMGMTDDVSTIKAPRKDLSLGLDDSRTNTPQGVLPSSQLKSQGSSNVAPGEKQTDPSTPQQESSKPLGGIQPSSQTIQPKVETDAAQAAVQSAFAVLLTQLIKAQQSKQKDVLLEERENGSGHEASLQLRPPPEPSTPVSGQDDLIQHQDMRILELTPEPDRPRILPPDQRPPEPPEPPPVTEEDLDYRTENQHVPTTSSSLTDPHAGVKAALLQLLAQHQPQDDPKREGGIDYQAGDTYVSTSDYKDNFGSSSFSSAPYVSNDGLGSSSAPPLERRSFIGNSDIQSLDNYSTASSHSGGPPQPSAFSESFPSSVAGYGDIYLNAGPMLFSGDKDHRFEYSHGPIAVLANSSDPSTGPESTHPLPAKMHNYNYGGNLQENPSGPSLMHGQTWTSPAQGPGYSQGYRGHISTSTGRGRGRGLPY

Structure (SMILES) | CC50 [1] [µM] | CC50 [2] [µM] | log2FC (IC020772.1/DMSO) ([3]; CDK12 (Q9NYV4-1)) | logFC (IC021313.2/DMSO), CDK13 (Q14004-2) [4] | logFC (IC021313.2/DMSO), CDK12 (Q9NYV4-1) ([3]; expression proteomics, drug vs DMSO, Table 4, log2FC < −0.3)
O=C(CSc1nnc2c(n1)[nH]c1ccccc12)Nc1ccc(Cl)cn1 [IC020772.1] | 7.53 | 2 | −1.171 |  | 
Cc1ccc(C(=O)N2CSCC2C(=O)N=c2[nH]cc(C)s2)o1 (stereo not drawn) [Compound T6938051] | 110 | 3.47 |  |  | 
O=C(CSc1nc2ccccc2[nH]1)Nc1ccc(Cl)cn1 [IC021313.2] | 15.7 | 4.34 |  | −0.6574 | −0.897
